Molecular target: T1, recombinant GRP78 protein (Homo sapiens, UniProt P11021)
T1 construct: gene HSPA5; recombinant GRP78
Experiment: isothermal titration calorimetry; also SPR small molecule microarray
Assay type: binding
From the text: isothermal titration calorimetry; also SPR small molecule microarray on recombinant GRP78 protein | measure the binding affinity of cefoselis with the recombinant GRP78 protein

T1 sequence (P11021 19-654): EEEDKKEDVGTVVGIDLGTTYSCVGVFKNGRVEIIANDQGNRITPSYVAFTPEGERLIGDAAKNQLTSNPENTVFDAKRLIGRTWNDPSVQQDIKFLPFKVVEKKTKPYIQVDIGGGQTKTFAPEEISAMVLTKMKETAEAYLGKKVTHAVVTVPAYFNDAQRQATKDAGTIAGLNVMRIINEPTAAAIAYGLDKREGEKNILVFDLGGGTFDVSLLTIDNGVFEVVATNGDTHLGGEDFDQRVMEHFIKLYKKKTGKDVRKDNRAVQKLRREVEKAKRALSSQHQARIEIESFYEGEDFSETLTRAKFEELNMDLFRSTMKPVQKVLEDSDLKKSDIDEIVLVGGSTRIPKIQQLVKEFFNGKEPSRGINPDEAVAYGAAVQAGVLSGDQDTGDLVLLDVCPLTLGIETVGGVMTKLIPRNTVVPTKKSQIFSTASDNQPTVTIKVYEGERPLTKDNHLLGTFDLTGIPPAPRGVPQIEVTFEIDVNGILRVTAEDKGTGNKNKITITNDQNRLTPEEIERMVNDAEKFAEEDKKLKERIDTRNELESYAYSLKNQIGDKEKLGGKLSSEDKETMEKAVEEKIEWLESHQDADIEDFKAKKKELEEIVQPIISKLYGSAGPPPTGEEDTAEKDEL

- Kd: 0.463 µM
SMILES: CO/N=C(\C(=O)N[C@@H]1C(=O)N2C(C(=O)[O-])=C(C[n+]3ccc(N)n3CCO)CS[C@H]12)c1csc(N)n1 [cefoselis]

From paper PMC9939292, “Cefoselis enhances breast cancer chemosensitivity by directly targeting GRP78/LRP5 signalling of cancer stem cells” (Clinical and Translational Medicine, 2023)
